Test results from patent US10828303B2, “Composition comprising combination of TRH analog with arundic acid, and pharmaceutically acceptable salt of arundic acid” (Brivention Pharmaceutical (Shanghai) Inc., priority 2016, dated 2020).
“And” between values parts separate entries of the source, which are not always exact repeats. Identical values can stand only once.

What was measured:
Type in all cases: in vivo, rat
[1] = system: four-vessel occlusion model of rats; experiment: Morris water maze Transfer test in four-vessel occlusion model; settings: 4-VO rats, oral 28 d: arundic acid 30, taltirelin 10, combination 10+3 mg/kg/day; for Residence time in Zone 3: Table 6
Description: The water temperature of the water maze during the experiment was kept at 23° C. […] A Transfer test was performed 3 days after the final administration of test drugs. For the Transfer test, the platform was removed, and the pool was filled with water to a water depth of 31 cm. To enable the rats to memorize surrounding various spatial arrangements, cues, such as posters and photographs, were placed on the wall. The cues always remained at the same locations during the experiment (FIG. 1: a plan view of Morris water maze, and the laboratory layout). Three days after the final administration of the test drug, the platform was removed and a Transfer test in which the pool was filled with water to a water depth of 31 cm was performed. […] Each rat was given only one trial, and the time was 180 seconds. The starting point was on the side opposite to the platform (see FIG. 1). In the Transfer test, the time spent in each Zone and the number of times the rats crossed over the platform location were determined. The behaviors of the rats in each trial were automatically analyzed with a CCD camera and the SMART (produced by Kyoto […]) behavioral analysis program by binarization of the white color of rats' fur and black ash color of the surrounding area. Significant differences between the groups in spatial memory according to the Morris water maze method were determined by the nonparametric Dunnett's multiple comparison test. 6) After completion of the Morris water maze test, the brain of each rat was perfusion-fixed with 4% paraformaldehyde. The details are as follows.

[2] = system: hippocampal CA1 neuronal cells; experiment: HE staining of hippocampus CA1, degree of neuronal death; settings: HE-stained specimens after 28 days of administration; arundic acid 30, taltirelin 10, combination 10+3 mg/kg/day
Description: After completion of the Transfer test, the rats were anesthetized, and the chest cavity was opened to expose the heart. A ventricle was incised to insert a catheter from the heart to the carotid artery, and 50 mL or more of heparinized physiological saline was perfused. Subsequently, 50 mL or more of 4% paraformaldehyde phosphate buffer was perfused. The perfusion procedures were performed with ligation of the main artery. After perfusion-fixation, the brain was removed and immersion-fixed in 4% paraformaldehyde phosphate buffer.
20-μm serial thick frozen sections were prepared from this brain using a cryostat. Alternating serial sections were stained with hematoxylin-eosin. The degree of neuronal death in the stained tissue was semi-quantitatively evaluated under an optical microscope.

[3] = Body weight changes in four-vessel occlusion rats; settings: for Body weight, Day 7 / Body weight, Day 14 / Body weight, Day 21 / Body weight, Day 28 / Body weight, Day 0: Mean ± S.E.; for Body weight, Day 7 / Body weight, Day 14 / Body weight, Day 21 / Body weight, Day 28: 4-VO rats, oral daily: arundic acid 30, taltirelin 10, combination 10+3 mg/kg/day; for Body weight, Day 0: before administration, one week after 4-VO surgery, groups later given arundic acid 30, taltirelin 10, combination 10+3 mg/kg/day; for Body weight change in words: compared with Group 2 (control), until day 28, arundic acid 30, taltirelin 10, combination 10+3 mg/kg/day
Description: 7-week-old (body weight: 200 to 240 g) male Crl: Wistar rats were used for an experiment after acclimation for 1 week or more. During the experimental period, the rats were raised in an animal room maintained at a room temperature of 23±1° C. and a humidity of 55±5%, and illuminated for 12 hours (6:30-18:30); with ad libitum access to food (Oriental Yeast, CRF-1) and water.
Arundic acid ((R)-(−)-2-propyloctanoic acid: Lot No. CS04818-503, M.W.186.29, specific gravity: 0.908), which is an astrocyte function-improving agent, used in this test is a product synthesized by Chemical Soft Co., Ltd. Taltirelin hydrate (hereinafter referred to as taltirelin, M.W.463.47: N-[(4S)-1-methyl-2,6-dioxohexahydropyrimidine-4-carbonyl]-L-histidyl-L-prolinamide (Lot No. N16P)), which is a ataxia-improving agent, used in this test is a product purchased from Matrix Scientific. When arundic acid was to be administered at a dose of 30 mg/kg/5 mL, 1.61 mL of 1N NaOH was added to 300 mg (306 μL) of arundic acid to dissolve the arundic acid, and 48.084 mL of water or 0.5% CMC (carboxymethyl cellulose) was added to the resulting solution to make a total volume of 50 mL. In the experiment, a 10-fold concentrated arundic acid solution was prepared and adjusted for the concentration before use. When taltirelin was to be administered at a dose of 3 mg/kg or 10 mg/kg, taltirelin was dissolved in distilled water in a volume of 5 ml/kg. The test drug(s) were orally administered for 28 days (including Saturdays, Sundays, and public holidays), starting from 1 week after preparation of four-vessel occlusion models.
Five groups of rats (4 to 6 rats per group) were used. The details are as follows. Group 1 is a group that was not subjected to four-vessel occlusion. Groups 2 to 5 are groups that were subjected to four-vessel occlusion.
A vertebral artery cauterization surgery was performed in accordance with the method of Pulsinelli & Brierley (Pulsinelli, W. A. and Brierley, J. B.: Stroke 10, 267, 1979). More specifically, the rats anesthetized with Nem-ravona (registered trademark) and Butal (registered trademark) were fixed in the prone position to a brain stereotaxic apparatus, and the dorsal cervical skin and muscle layer were incised to expose the first cervical vertebra. The tips of the tweezers of a bipolar coagulator (Mizuho Ikakogyo Co., Ltd.; MICROID) were inserted into the alar foramina on both sides of the first cervical vertebra, and the vertebral artery running upward toward the cerebral base was bilaterally cut off by electrocauterization. The skin was then sutured. Subsequently, the rats were fixed again in the supine position to an experimental surgical table, and the ventral cervical skin was incised. After the bilateral common carotid arteries were separated from surrounding tissues and silk thread was looped around the arteries, the skin was sutured. After completion of the surgery, the rats were returned to a cage and observed. No behavioral abnormality was confirmed.
Twenty-four hours after vertebral artery cauterization by the above method, the rats under isoflurane inhalation anesthesia were fixed in the supine position for immobilization before common carotid artery ligation on the following day. The ventral cervical skin was incised again to expose bilateral common carotid arteries. First, the right-side common carotid artery was occluded with an artery clamp or Mosquito hemostat forceps (both forceps were covered with a silicone tube to reduce stimulus to the blood vessel wall). After about 60 seconds, the left-side common carotid artery was occluded in the same manner. Since righting reflex (RR) of rats during bilateral common carotid artery occlusion, i.e., rats with brain ischemia, was lost, immobilization in the supine-position seemed unnecessary. However, sudden movements, such as walking-like motions of four limbs or lateral turning, were observed. […]

Row | Structure (SMILES) | Residence time in Zone 1 ([1]; Mean ± S.E.) [s] | Residence time in Zone 1 (%) ([1]; Mean ± S.E.) | Residence time in Zone 2 ([1]; Mean ± S.E.) [s] | Residence time in Zone 2 (%) ([1]; Mean ± S.E.) | Residence time in Zone 3 (%) ([1]; Mean ± S.E.) | Residence time in Zone 4 ([1]; Mean ± S.E.) [s] | Residence time in Zone 4 (%) ([1]; Mean ± S.E.) | Transfer test Platform Crossing Times ([1]; Mean ± S.E.) | Transfer test Residence time in Zone 3 ([1]; Mean ± S.E.) [s] | Residence time in Zone 3 ([1]; Mean ± S.E.) [s] | Residence time in Zone 3 ([1]; individual rat, 3 mg/kg/day) | Residence time in Zone 1 ([1]; individual rat, 3 mg/kg/day) | Residence time in Zone 1 (%) ([1]; individual rat, 3 mg/kg/day) | Residence time in Zone 2 ([1]; individual rat, 3 mg/kg/day) | Residence time in Zone 2 (%) ([1]; individual rat, 3 mg/kg/day) | Residence time in Zone 3 (%) ([1]; individual rat, 3 mg/kg/day) | Residence time in Zone 4 ([1]; individual rat, 3 mg/kg/day) | Residence time in Zone 4 (%) ([1]; individual rat, 3 mg/kg/day) | Transfer test Platform Crossing Times ([1]; individual rat, 3 mg/kg/day) | Hippocampal CA1 neuronal cell death / regeneration, in words [2] | further results
1 | CCCCCC[C@@H](CCC)C(=O)O [Arundic acid, (R)-(−)-2-propyloctanoic acid] | 41.6 ± 8.7 | 22.8 ± 4.3 | 42.0 ± 10.9 | 23.0 ± 5.5 | 34.6 ± 5.1 | 34.9 ± 83 | 19.6 ± 4.7 | 5.5 ± 1.4 | 62 ± 8.4 | 61.9 ± 8.4 | 82.9 s and 66.0 s and 43.6 s and 55.2 s | 24.0 s and 32.5 s and 63.9 s and 45.8 s | 13.3% and 19.3% and 33.3% and 25.4% | 16.9 s and 34.4 s and 68.2 s and 48.3 s | 9.4% and 20.4% and 35.5% and 26.8% | 46.0% and 39.1% and 22.7% and 30.6% | 56.5 s and 35.7 s and 16.4 s and 31.0 s | 31.3% and 21.2% and 8.5% and 17.2% | 6 and 9 and 2 and 5 | promoted regeneration of hippocampal CA1 neuronal cells | Body weight, Day 7 [3]: 255.5 ± 5.1 g; Body weight, Day 14 [3]: 272.6 ± 7.4 g; Body weight, Day 21 [3]: 288.0 ± 7.1 g; Body weight, Day 28 [3]: 308.5 ± 5.0 g; Body weight, Day 0 [3]: 228.7 ± 4.9 g; Body weight change in words [3]: favorable body weight increase
2 | CN1C(=O)C[C@@H](C(=O)N[C@@H](Cc2c[nH]cn2)C(=O)N2CCC[C@H]2C(N)=O)NC1=O [Taltirelin, N-[(4S)-1-methyl-2,6-dioxohexahydropyrimidine-4-carbonyl]-L-histidyl-L-prolinamide] | 39.3 ± 5.4 | 21.7 ± 3.0 | 34.2 ± 10.3 | 19.0 ± 5.8 | 31.6 ± 2.4 | 50.2 ± 8.5 | 27.6 ± 4.6 | 5.3 ± 1.4 | 57 ± 4.1 | 57.1 ± 4.1 | 58.5 s and 66.9 s and 47.1 s and 56 s | 24.5 s and 44.4 s and 38.6 s and 49.7 s | 13.6% and 24.8% and 21.2% and 27.3% | 63 s and 30.4 s and 29.6 s and 14.1 s | 35.1% and 17.0% and 16.2% and 7.7% | 32.6% and 37.3% and 25.8% and 30.7% | 33.6 s and 37.5 s and 67 s and 62.5 s | 18.7% and 20.9% and 36.8% and 34.3% | 8 and 7 and 4 and 2 | shedding was observed | Body weight, Day 7 [3]: 256.6 ± 8.7 g; Body weight, Day 14 [3]: 272.3 ± 10.3 g; Body weight, Day 21 [3]: 291.3 ± 12.0 g; Body weight, Day 28 [3]: 307.2 ± 12.2 g; Body weight, Day 0 [3]: 228.6 ± 4.5 g; Body weight change in words [3]: favorable body weight increase
